# Test results taken from the NIST ThermoML archive (doi:10.1021/je800100m).
# ± gives the expanded uncertainty stated by the source.
# Columns and labels:
# [1] = xn = mol fraction of the nth substance listed; conditions: 308.15 K, 101 kPa, Liquid, Sing-around technique in a fixed-path interferometer
# [2] = Liquid; for speed of sound: 101.3 kPa, Sing-around technique in a fixed-path interferometer; for mass density: 101.33 kPa, Pycnometric method
compound,measurement,setting,value
Cc1ccccc1N [2-methylaniline] + Cc1ccccc1C,speed of sound,[1]; x1 = 0.0799,1325 ± 5 m/s
same,speed of sound,[1]; x1 = 0.1313,1328 ± 5 m/s
same,speed of sound,[1]; x1 = 0.1977,1333 ± 5 m/s
same,speed of sound,[1]; x1 = 0.2507,1338 ± 5 m/s
same,speed of sound,[1]; x1 = 0.3003,1345 ± 5 m/s
same,speed of sound,[1]; x1 = 0.3663,1355 ± 5 m/s
same,speed of sound,[1]; x1 = 0.4456,1370 ± 5 m/s
same,speed of sound,[1]; x1 = 0.508,1385 ± 5 m/s
same,speed of sound,[1]; x1 = 0.5892,1408 ± 5 m/s
same,speed of sound,[1]; x1 = 0.6666,1434 ± 5 m/s
same,speed of sound,[1]; x1 = 0.7287,1459 ± 5 m/s
same,speed of sound,[1]; x1 = 0.7884,1485 ± 5 m/s
same,speed of sound,[1]; x1 = 0.8314,1505 ± 5 m/s
same,speed of sound,[1]; x1 = 0.909,1547 ± 5 m/s
Cc1ccccc1N [2-methylaniline] + Cc1ccc(C)cc1,speed of sound,[1]; x1 = 0.0534,1287 ± 5 m/s
same,speed of sound,[1]; x1 = 0.1009,1295 ± 5 m/s
same,speed of sound,[1]; x1 = 0.1707,1308 ± 5 m/s
same,speed of sound,[1]; x1 = 0.2483,1325 ± 5 m/s
same,speed of sound,[1]; x1 = 0.32,1342 ± 5 m/s
same,speed of sound,[1]; x1 = 0.3949,1361 ± 5 m/s
same,speed of sound,[1]; x1 = 0.4559,1378 ± 5 m/s
same,speed of sound,[1]; x1 = 0.5332,1402 ± 5 m/s
same,speed of sound,[1]; x1 = 0.6007,1423 ± 5 m/s
same,speed of sound,[1]; x1 = 0.6897,1455 ± 5 m/s
same,speed of sound,[1]; x1 = 0.7417,1475 ± 5 m/s
same,speed of sound,[1]; x1 = 0.8009,1500 ± 5 m/s
same,speed of sound,[1]; x1 = 0.8668,1530 ± 5 m/s
same,speed of sound,[1]; x1 = 0.9374,1567 ± 5 m/s
"Cc1ccc(C)cc1 [1,4-dimethylbenzene]",speed of sound,[2]; 298.15 K,1310.1 ± 5.4 m/s
same,mass density,[2]; 298.15 K,856.58 ± 5.3 kg/m3
Cc1ccccc1 [toluene],speed of sound,[2]; 298.15 K,1304.6 ± 5.4 m/s
same,mass density,[2]; 298.15 K,862.21 ± 5.4 kg/m3
Cc1ccccc1N [2-methylaniline] + Cc1ccccc1,speed of sound,[1]; x1 = 0.0457,1270 ± 5 m/s
same,speed of sound,[1]; x1 = 0.0998,1283 ± 5 m/s
same,speed of sound,[1]; x1 = 0.1516,1296 ± 5 m/s
same,speed of sound,[1]; x1 = 0.2017,1308 ± 5 m/s
same,speed of sound,[1]; x1 = 0.2773,1327 ± 5 m/s
same,speed of sound,[1]; x1 = 0.3496,1346 ± 5 m/s
same,speed of sound,[1]; x1 = 0.407,1359 ± 5 m/s
same,speed of sound,[1]; x1 = 0.4797,1381 ± 5 m/s
same,speed of sound,[1]; x1 = 0.5882,1414 ± 5 m/s
same,speed of sound,[1]; x1 = 0.6667,1440 ± 5 m/s
same,speed of sound,[1]; x1 = 0.7464,1470 ± 5 m/s
same,speed of sound,[1]; x1 = 0.8033,1494 ± 5 m/s
same,speed of sound,[1]; x1 = 0.8647,1523 ± 5 m/s
same,speed of sound,[1]; x1 = 0.9223,1554 ± 5 m/s
Cc1ccccc1N [2-methylaniline],mass density,[2]; 298.15 K,994.28 ± 7.2 kg/m3
same,speed of sound,[2]; 308.15 K,1603 ± 5 m/s
"Cc1ccccc1C [1,2-dimethylbenzene]",speed of sound,[2]; 298.15 K,1344 ± 5.4 m/s
same,mass density,[2]; 298.15 K,875.99 ± 5.6 kg/m3
